Series [1] can be described thus: In vivo pharmacokinetic studies in rats (IV and PO dosing, plasma). As to conditions: rat; for AUC0-∞ / CL / Vz / Cmax / Tmax: mean of N=4; for % F: 200 mg/kg PO vs IV, printed in AUC0-∞ column. As for the experimental part:
The pharmacokinetics of exemplary compounds was determined by comparison with 4-hydroxybutyric acid by dosing the compounds in rats according to the following study design and sampling procedure.

The conditions of series [2]: humans; cited from earlier work.
Setting [3] is: 200 mg/kg IV, mean of N=4, Cmin at 2 hr.
Setting [4] is: 200 mg/kg IV, mean of N=4, calculated up to 2 hr.
Where [5] appears, read: 200 mg/kg PO, mean of N=4, Cmin at 4 hr.
Where [6] appears, read: 200 mg/kg PO, mean of N=4, calculated up to 4 hr.

Structures are written as SMILES. Structures can show the parent of a compound that is named as a salt.

On to `[2H]C([2H])(CCO)C(=O)[O-].[Na+]` [Sodium 2,2-d2-4-Hydroxybutanoate], for which, in series [1] (200 mg/kg IV), the “AUC0-∞” value was 476 µg·h/mL, the CL was 0.42 L/h/kg and the Vz is 0.2 L/kg. The same compound returned a Cmin in series [1] (setting [3]) of 19 µg/mL. In series [1] (setting [4]), the t1/2 was 19.8 min. For the same compound, the “% F” value in series [1] is recorded as 41%. Besides, in series [1] (200 mg/kg PO), the “AUC0-∞” value is 193 µg·h/mL, the Cmax amounted to 153 µg/mL and the Tmax amounted to 37.8 min. The compound also came in with a Cmin in series [1] (setting [5]) of 1 µg/mL. The t1/2 in series [1] (setting [6]) was 35.4 min. In series [1] (200 mg/kg PO, reference not given, apparently vs 4-hydroxybutyric acid, sodium salt), the “AUC0-∞ fold change (printed in brackets under the PO AUC)” value is recorded as “(+1.1X)”.
Regarding `[2H]C([2H])(O)CC([2H])([2H])C(=O)[O-].[Na+]` [IV-b, sodium salt, Sodium 2,2,4,4-d4-4-hydroxybutanoate], in series [1] (200 mg/kg IV), the “AUC0-∞” value was found to be 651 µg·h/mL, the CL came out at 0.3 L/h/kg and the Vz amounted to 0.3 L/kg. This compound also had a Cmin in series [1] (setting [3]) of 76 µg/mL. In addition, in series [1] (setting [4]), the t1/2 was 37.8 min. Also, the “% F” value in series [1] is 40%. For the same compound, in series [1] (200 mg/kg PO), the “AUC0-∞” value worked out at 260 µg·h/mL, the Cmax was 151 µg/mL and the Tmax was 37.8 min. This compound displayed a Cmin in series [1] (setting [5]) of 5 µg/mL. The t1/2 in series [1] (setting [6]) is 56.4 min. Moreover, in series [1] (200 mg/kg, comparison of AUC0-∞ and t1/2), the “pharmacokinetics relative to 4-hydroxybutyric acid, sodium salt” value is given as “considerably increased”.
As for `O=C(O)CCCO` [4-hydroxybutyric acid, sodium salt, sodium salt of 4-hydroxybutyric acid, reference compound], the concentration at 2 hr in series [1] (plasma, 200 mg/kg IV, mean of N=4, Cmin at 2 hr) is 8 µg/mL. Moreover, the Cmin in series [1] (setting [5]) stood at 2 µg/mL. Moreover, the half life in series [2] is 30 to 60 min.

By Cmax is commonly meant the peak of the concentration-time curve. Usually Tmax stands for the time from dosing to the highest level.

The values above are taken from patent US10040748B2, “4-hydroxybutyric acid analogs” (Concert Pharmaceuticals, Inc., priority 2011, dated 2018).
